Source: US20220202739A1, “ENDOCANNABINOID MIMETIC AND ANTI-INFLAMMATORY COMPOUND CONTAINING COMPOSITIONS, METHODS OF PREPARATION AND USES THEREOF” (priority 2019, published 2022)
Like-named read-outs stand apart in the source and are kept apart here.

Test system: TRPA1
Test: Gene expression custom microarray, human skin fibroblasts (Example 1): TRPA1
Format: cell-based
Details: for fold induction at 10 µM: Skin fibroblast, read-out: TRPA1↑ gene expression, fold increase or decrease vs untreated cells
Excerpt: Cell cultures: A human skin fibroblast cell culture (or cultures) was obtained through the Coriell Cell Repository from the National Institute on Aging Cell Repository (Camden, N.J.), or Promocell GmbH (Heidelberg, Germany). The initial culture was selected from the following cell lines: AG13066, AG11557, AG11796 or GM03651E. The cell lines were derived from donors as follows:
Experimental phase: When the appropriate quantity of cells had been grown, they were detached as described above, but at the final step were seeded into each well of one or more 6 well dishes. Each well received 2 ml of the cell suspension so they were seeded equally. The dishes were returned to the incubator until 85-95% confluency was reached.
It is at this stage that all wells were rinsed in PBS after aspirating the growth media. The compound(s) to be tested were previously mixed into a suitable solvent (e.g., DMSO or ethanol) that can be diluted to the desired concentration of test compound (10 μl) in the culture wells without exceeding maximum solvent concentrations and adversely effecting cell viability, and mixed with basal media. NOTE: Standard maximum levels of solvent are 0.1% for DMSO and 0.5% for ETOH. The concentration of each test compound is found in Tables 1 & 2.
Every 2 wells on the 6 well plate served as a biological replicate for the purposes of RNA isolation and genetic expression evaluations making each 6 well dish an n=3 for the test compound(s) contained in the media. Negative control plates (no test compound(s) and only basal media) were also generated. The plates were returned to the incubator for 24 hrs.
At the end of the 24 hr time period, the plates were removed from the incubator, the test media aspirated, and the cells rinsed with PBS. RNA isolation is performed using the BioRad Aurum Total RNA Mini Kit (Hercules, Calif.) per manufacturer's protocol; which is described, in brief, below: • Add 350 μl of lysis buffer to each well. Pipet multiple times to ensure thorough lysis. Add lysed cells to the collection tube. • Add 350 μl of 70% ETOH to the collection tube and mix thoroughly. • Pipet the generated lysate onto the spin column placed in a new 2 ml tube. Centrifuge for 30 sec between 8,000 and 10,000 g. • Place the spin column containing the now bound RNA, in a new 2 ml tube. Add 700 μl of low stringency wash solution to the spin column. Centrifuge for 30 sec between 8,000 and 10,000 g. Discard the flow through and replace spin column. • Add 80 μl of DNase I dilution to the spin column and incubate at room temperature for 15 minutes. • Add 700 μl of high stringency wash solution to the column and centrifuge for 30 sec between 8,000 and 10,000 g. Discard flow through. • Add 700 μl of low stringency wash solution to the column and centrifuge for 60 sec between 8,000 and 10,000 g. Discard flow through. • Centrifuge for 2 minutes to remove residual wash solution. • Transfer spin column to new 1.5 ml collection tube and add 80 μl of elution solution to the column. Allow 1 minute for saturation of the membrane and then centrifuge for 2 minutes to complete the RNA elution. • Quantify the quantity of RNA and store at −20 C° until use (no more than 1 month)
The genes tested were: • Cannabinoid receptor 1 (CB1(CNR1)) • Cannabinoid receptor 2 (CB2 (CNR2)) • Fatty acid amide hydrolase (FAAH) • Monoacylglycerol lipase (MGLL, i.e., MAGL) • Peroxisome proliferator-activated receptor gamma (PPARG) • Nuclear factor kappa-light-chain-enhancer of activated B cells (NFκβ) • Interleukin 1 Alpha (IL1alpha) • Cyclooxygenase 1 (PTGS1, i.e., COX1) • Transient receptor potential cation channel subfamily A member 1 (TRPA1) • Transient receptor potential cation channel subfamily V member 1 (TRPV1) • Transient receptor potential cation channel subfamily M member 8 (TRPM8) • Hemoglobin Subunit Beta (HBB) REFERENCE GENE • Ribosomal Protein L13a (RPL13A) REFERENCE GENE […]

[1] = human skin fibroblasts, 10 uM, 24 hr

## C=C(C)[C@@H]1CCC(C)=C[C@H]1c1c(O)cc(CCCCC)cc1O [CBD, cannabidiol, reference compound]
Homo sapiens, 24 h
  fold induction at 10 µM: 2.7

## CCCCCCCCCCCCCCCC(=O)NCCO [N-palmitoylethanolamide]
[1]
  TRPA1↑ gene expression, fold increase or decrease vs untreated cells: 8.2 fold

## CC(C)[C@]12O[C@H]1[C@@H]1O[C@]13[C@]1(O[C@H]1C[C@H]1C4=C(CC[C@@]13C)C(=O)OC4)[C@@H]2O [Triptolide]
[1]
  fold induction at 10 µM: 26.1
